Measurements as given in patent publication US20140031296A1, “NEW SYNTHETIC PEPTIDES AND THEIR USE” (PERGAMUM AB, priority 2011, published 2014).
“Also recorded” adds a separate entry of the source.

What was measured:
S. aureus (CCUG 1800) = test: Minimal microbicidal concentration (MMC99) assay, S. aureus; assay type: cell-based; settings: for MMC99: S. aureus, Example 3; for MMC99 μM in 1% BHI medium / MMC99 μM in 50% SWF: screen 2, 2 hours; for MMC99 μM in 50% SWF: 50% heat inactivated simulated wound fluid
Method: Antimicrobial Activity was Measured as Bactericidal Effect on S. aureus Using Minimal Microbicidal Concentration, MMC99, Assay)
S. aureus (#1800; CCUG, Gothenburg, Sweden) cultured on blood-agar plates [Columbia agar (Oxoid, Basingstoke, UK) supplemented with 5% defibrinated horse blood (National Veterinary Institute (SVA), Uppsala, Sweden)] were transferred to brain heart infusion broth (3.7% BHI; Difco, BD Diagnostics, Franklin Lakes, N.J., USA) and incubated in a shaker at 250 rpm+37° C. over night. The culture was thereafter be diluted 1:10 in fresh BHI broth and incubated for additional two hours to reach log-phase growth. The bacteria were pelleted and suspended in 1% BHI medium (BHI broth diluted 100 times in ultra-pure water) to a concentration of 10^7 bacteria/ml as estimated by measuring optical density at 600 nm. Peptides were serially diluted by two-fold steps from 160 μM to 1.25 μM in 1% BHI medium. The peptides (100 μl) were thereafter incubated with bacteria (5 μl á 10^7 bact./ml) for 2 hours at +37° C. Drops (5 μl) of the suspension were placed on blood agar plates. The blood agar plates were incubated over night at +37° C. The MMC99 values, i.e. the lowest peptide concentration needed to achieve a 99% reduction of viable bacteria, were recorded (Table 3). The concentration of the bacterial suspension used in the assay was confirmed by viable counts on blood agar plates.
S. aureus (#1800; CCUG, Gothenburg, Sweden) cultured on blood-agar plates [Columbia agar (Oxoid, Basingstoke, UK) supplemented with 5% defibrinated horse blood (National Veterinary Institute (SVA), Uppsala, Sweden)] were transferred to brain heart infusion broth (3.7% BHI; Difco, BD Diagnostics, Franklin Lakes, N.J., USA) and incubated in a shaker at 250 rpm+37° C. over night. The culture was thereafter be diluted 1:10 in fresh BHI broth and incubated for additional two hours to reach log-phase growth. The bacteria were pelleted and suspended in 1% BHI medium (BHI broth diluted 100 times in ultra-pure water) to a final concentration of 10^7 bacteria/ml as estimated by measuring optical density at 600 nm.
Peptides were serially diluted by two-fold steps from 400 μM to 0.78 μM in either 1% BHI medium or in 50% heat inactivated simulated wound fluid [SWF, containing 1 part 0.1% peptone (Oxoid, Basingstoke, UK) in saline and 1 part fetal bovine serum, diluted 2 times in ultra-pure water].
The peptides (100 μl) were thereafter incubated with bacteria (5 μl a 10^7 bact./ml) for 2 hours at +37° C. Drops (5 μl) of the suspension were placed on blood agar plates. The blood agar plates were incubated over night at +37° C. The MMC99 values, i.e. the lowest peptide concentration needed to achieve a 99% reduction of viable bacteria were recorded (Table 6). The concentration of the bacterial suspension used in the assay was confirmed by viable counts on blood agar plates.
(§1) The antimicrobial effects of the peptides 232 (SEQ ID NO: 78), and 220 (SEQ ID NO:67) were analysed by MMC99 (minimal microbicidal concentration) assay against S. aureus (CCUG 1800), MRSA (CCUG 41879), P. aeruginosa (ATCC 15442), E. coli (CCUG 31246), S. pyogenes (CCUG 4207), P. acnes (CCUG 1794T), S. epidermidis (ATCC12228), K. pneumoniae (ATCC 13883), A. baumannii (ATCC 19606), and C. albicans (ATCC 64549). The peptides were purchased from Biopeptide Company (San Diego, Calif., USA) and Bachem AG (Bubendorf, Switzerland) and results are presented in Table 8A and 8B respectively.
Peptides were serially diluted in two different assay medium, 1% BHI medium (brain-heart infusion medium) or 50% heat inactivated simulated wound fluid (SWF), and thereafter incubated with the microorganisms for 2 hours. Drops of the suspension were placed on blood agar plates. The MMC99 values, i.e. the lowest peptide concentration needed to achieve a 99% reduction of viable microorganisms, were recorded. As presented in Table 8, all the peptides have the ability to kill microorganisms frequently appearing in infections. […]

P. acnes (CCUG 1794T) = test: MMC99 assay, P. acnes; assay type: cell-based
Method: as §1
(§2) Peptides were serially diluted in two different assay medium, 1% BHI medium (brain-heart infusion medium) or 50% heat inactivated simulated wound fluid (SWF), and thereafter incubated with the microorganisms for 2 hours. Drops of the suspension were placed on blood agar plates. The MMC99 values, i.e. the lowest peptide concentration needed to achieve a 99% reduction of viable microorganisms, were recorded. As presented in Table 8, all the peptides have the ability to kill microorganisms frequently appearing in infections.

S. pyogenes (CCUG 4207) = test: MMC99 assay, S. pyogenes; assay type: cell-based
Method: as §1, §2

E. coli (CCUG 31246) = test: MMC99 assay, E. coli; assay type: cell-based
Method: as §1, §2

MRSA (CCUG 41879) = test: In vivo antimicrobial effect in excision wound model in rats; design: species or system rat; settings: peptide in H2O 0.1, 0.5 and 2 mg/ml, single administration, 2 hours
Source text: FIG. 4. Dose-response effect of peptide 232 (SEQ ID NO 78)(A) and peptide 220 (SEQ ID NO 67)(B) on bacterial colonization of infected excision wounds in rats. […] Results are presented as relative bacterial survival (%) compared to control group±SEM (n=15 wounds). Statistical significance was estimated by Student's t test. *=p<0.05, **=p<0.01, ***=p<0.001.
The in vivo antimicrobial effects of the peptide 232 (SEQ ID NO: 78), and the peptide 220 (SEQ ID NO:67) were investigated in an excision wound model in rats. The wounds were inoculated with methicillin resistant S. aureus (MRSA) for two hours, followed by a single administration of peptide or control (H2O) for two hours before termination and harvest of the bacteria.

Sequence | MMC99 (S. aureus (CCUG 1800); 1% BHI) [µg/mL] | MMC99 (S. aureus (CCUG 1800); 50% SWF) [µg/mL] | MMC99 μM in 1% BHI medium (S. aureus (CCUG 1800)) [µM] | MMC99 μM in 50% SWF (S. aureus (CCUG 1800)) [µM] | MMC99 (P. acnes (CCUG 1794T); 1% BHI) [µg/mL] | MMC99 (P. acnes (CCUG 1794T); 50% SWF) [µg/mL] | MMC99 (S. pyogenes (CCUG 4207); 1% BHI) [µg/mL] | MMC99 (S. pyogenes (CCUG 4207); 50% SWF) [µg/mL] | MMC99 (E. coli (CCUG 31246); 1% BHI) [µg/mL] | MMC99 (E. coli (CCUG 31246); 50% SWF) [µg/mL] | bacterial colonization of infected excision wounds (bacterial counts vs control) (MRSA (CCUG 41879))
QSLARKLFQWLRNLRKVA [Peptide 220] | 7 | 28 | 12.5 | 25 | <3 | 100 | <3 | 50 | 3 | >200 | significant reduction in bacterial counts; also recorded: pronounced antimicrobial effect
RRLWRRWMRKVL [Peptide 232] | 5 | 44 | 12.5 | 25 | 6 | >200 | <3 | >200 | 5 | >176 | significant reduction in bacterial counts; also recorded: pronounced antimicrobial effect
